Data published in ChEMBL document CHEMBL4382287, “Design, Synthesis, and Biological Evaluation of 6-Benzoxazole Benzimidazole Derivatives with Antihypertension Activities” (ACS Med Chem Lett, 2019).
The source made the active and inactive calls. The rule behind the calls is not given here.

Key:
Rattus norvegicus [1] = experiment: Antihypertensive activity in rat spontaneous hypertensive model assessed as decrease in maximal mean blood pressure at 5 to 10 mg/kg, po qd measured up to 24 hrs; format: functional, organism-based
[2] = Displacement of [125I]-angiotensin-2 from AT1 receptor in Sprague-Dawley rat vascular smooth muscle cells after 150 mins by gamma counting method
Rattus norvegicus [3] = experiment: Antihypertensive activity in rat spontaneous hypertensive model assessed as decrease in maximal mean blood pressure at 10 mg/kg, po qd measured up to 24 hrs; format: functional
[4] = Toxicity in rat spontaneous hypertensive model assessed as effect on heart rate at 5 to 10 mg/kg, po qd measured up to 24 hrs; format: organism-based; details: in vivo

SMILES	Activity (Rattus norvegicus [1])	IC50 [2] [nM]	Ki [2] [nM]	Activity (Rattus norvegicus [3]) [mmHg]	Activity [4]
CCCCc1nc2c(C)cc(-c3nc4cccc(C)c4o3)cc2n1Cc1ccc2c(ccn2-c2ccccc2C(=O)O)c1	Active	9.7	7		
CCc1nc2c(C)cc(-c3nc4cccc(C)c4o3)cc2n1Cc1ccc2c(ccn2-c2ccccc2C(=O)O)c1	Active	13.6	9.8		
CCCc1nc2c(C)cc(-c3nc4cccc(C)c4o3)cc2n1Cc1cccc2c1ccn2-c1ccccc1C(=O)O	Active	5.3	3.8		
CCCCc1nc(Cl)c(CO)n1Cc1ccc(-c2ccccc2-c2nnn[nH]2)cc1 [LOSARTAN]		14.6	10.5	42.5	
CCCc1nc2c(C)cc(-c3nc4c(C)cccc4o3)cc2n1Cc1ccc2c(ccn2-c2ccccc2C(=O)O)c1	Active	4.4	3.2	41.91	Non-Toxic
CCCCc1nc2c(C)cc(-c3nc4c(C)cccc4o3)cc2n1Cc1ccc2c(ccn2-c2ccccc2C(=O)O)c1	Active	10.7	7.7		
CCc1nc2c(C)cc(-c3nc4c(C)cccc4o3)cc2n1Cc1cccc2c1ccn2-c1ccccc1C(=O)O	Active	10.3	7.5		
CCCc1nc2c(C)cc(-c3nc4c(C)cccc4o3)cc2n1Cc1cccc2c1ccn2-c1ccccc1C(=O)O	Active	4	2.9	54.57	Non-Toxic
CCCCc1nc2c(C)cc(-c3nc4c(C)cccc4o3)cc2n1Cc1cccc2c1ccn2-c1ccccc1C(=O)O	Active	9.9	7.2		
CCCCc1nc2c(C)cc(-c3nc4cccc(C)c4o3)cc2n1Cc1cccc2c1ccn2-c1ccccc1C(=O)O	Active	10.5	7.6		
CCCc1nc2c(C)cc(-c3nc4cccc(C)c4o3)cc2n1Cc1ccc2c(ccn2-c2ccccc2C(=O)O)c1	Active	5.6	4		
CCc1nc2c(C)cc(-c3nc4c(C)cccc4o3)cc2n1Cc1ccc2c(ccn2-c2ccccc2C(=O)O)c1	Active	12	8.7		
CCc1nc2c(C)cc(-c3nc4cccc(C)c4o3)cc2n1Cc1cccc2c1ccn2-c1ccccc1C(=O)O	Active	12.1	8.8		
